# Assay results published in patent EP2567959B1, “6-(4-HYDROXY-PHENYL)-3-STYRYL-1H-PYRAZOLO[3,4-B]PYRIDINE-4-CARBOXYLIC ACID AMIDE DERIVATIVES AS KINASE INHIBITORS” (SANOFI, priority 2011, dated 2013).
# Target: T1, human full-length recombinant PKC βII (Homo sapiens, UniProt P05771)
# T1 construct: Active human full-length recombinant PKC βII; purchased Invitrogen GmbH, Darmstadt, Germany
# Experiment: Determination of PKC βII inhibition (Caliper mobility-shift kinase assay, phosphorylation of fluorescein peptide substrate)
# Assay type: biochemical
# Conditions: 1 h; final compound concentration 1.14 µM (±0.15 µM); 60 min incubation at 32 °C
# Description: Determination of PKC βII inhibition
# PKC βII inhibition was determined according to the following protocol:
# Active human full-length recombinant PKC βII and the peptide substrate, Fluorescein-RFARKGSLRQKNV, were purchased from Invitrogen GmbH, Darmstadt, Germany. Adenosine-5'-triphosphate (ATP), bovine serum albumine (BSA), dimethylsulphoxide (DMSO), 4-(2-hydroxyethyl)piperazine-1-ethanesulfonic acid (Hepes), Triton X-100, 1,2-Dioleoyl-sn-glycerol (DAG), L-α-Phosphatidyl-L-serine (PS), calcium chloride (CaCl2), and Pluronic F-68 were purchased from Sigma-Aldrich, Munich, Germany. Magnesium chloride, 1 M sodium hydroxide solution, 1M hydrochloric acid solution and EDTA were obtained from Merck Biosciences, Darmstadt, Germany.
# Test compounds were diluted to three times the test concentration in buffer 1 (30 mM Hepes-NaOH, pH 7.4, 0.01 % Pluronic F-68 and 3 % (v/v) DMSO). The PKC βII enzyme was diluted to a concentration of 30 ng/ml in buffer 2 (30 mM Hepes-NaOH, pH 7.4, 15 mM MgCl2,150 µM CaCl2, 150 µg/ml PS, 60 µg/ml DAG, and 0.045 % (w/v) Triton X-100). The peptide substrate and ATP were diluted to concentrations of 3 µM and 120 µM, respectively, in buffer 2. Two µl of the compound solution were mixed with 2 µl of the diluted enzyme in a 384-well small volume microtiter plate (Greiner, Bio-One, Frickenhausen, Germany), and the kinase reaction was initiated by addition of 2 µl of the solution containing peptide substrate and ATP. After 60 min incubation at 32 °C, the reaction was stopped by addition of 20 µl of a solution containing 130 mM Hepes-NaOH, pH 7.4, 0.0195 % (v/v) Brij-35, 6.5 mM EDTA, 0.13 % chip coating reagent 3 (Caliper Lifescience Inc, Hopkinton, MA) and 6.5 % (v/v) DMSO. Phosphorylation of the substrate peptide was then detected on a Caliper 3000 instrument essentially as described by Pommereau et al (J. Biomol. Screening 2004, 9(5), 409-416). Separation conditions were as follows: Pressure -0.8 psi, upstream voltage - 3000 V, downstream voltage -800 V. Positive controls (buffer 1 instead of compound) and negative controls (buffer 1 instead of compound and buffer 2 instead of kinase solution) were run in parallel on each plate. Fractional turnover (R) was determined as the height of the peak of the phosphorylated peptide product divided by the sum of the unphosphorylated substrate and phosphorylated product peak heights. Percent-inhibition values for the test compounds were determined using the formula % Inhibition = 100*(1-(Rcompound-Rnegative control)/(Rpositive control-Rnegative control). [formula]
# In the following table % inhibition values observed with example compounds at a final concentration of 1.14 µM (±0.15 µM) are listed: […]
# T1 sequence (P05771 1-673 isoform P05771-2): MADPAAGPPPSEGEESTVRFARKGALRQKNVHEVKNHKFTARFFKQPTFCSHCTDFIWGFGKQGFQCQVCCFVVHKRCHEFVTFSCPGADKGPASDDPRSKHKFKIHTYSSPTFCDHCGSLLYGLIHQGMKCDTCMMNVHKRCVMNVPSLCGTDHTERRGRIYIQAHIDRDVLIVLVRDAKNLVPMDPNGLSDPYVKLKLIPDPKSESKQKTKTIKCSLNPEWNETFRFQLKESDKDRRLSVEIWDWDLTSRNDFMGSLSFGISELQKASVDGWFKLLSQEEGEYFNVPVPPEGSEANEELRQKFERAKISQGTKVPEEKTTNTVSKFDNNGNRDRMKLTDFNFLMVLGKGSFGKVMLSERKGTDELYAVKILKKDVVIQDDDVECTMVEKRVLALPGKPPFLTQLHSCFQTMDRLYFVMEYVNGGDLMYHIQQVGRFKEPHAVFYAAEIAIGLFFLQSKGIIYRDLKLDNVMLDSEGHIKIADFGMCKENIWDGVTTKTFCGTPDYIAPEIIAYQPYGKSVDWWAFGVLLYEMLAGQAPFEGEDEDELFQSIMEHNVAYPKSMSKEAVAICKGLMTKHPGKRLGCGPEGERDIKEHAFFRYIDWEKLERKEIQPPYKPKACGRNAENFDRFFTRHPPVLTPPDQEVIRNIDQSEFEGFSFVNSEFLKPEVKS
row,inhibition at 1.14 µM [%],SMILES
1,94,"O=C(c1cc(-c2ccc(O)cc2)nc2[nH]nc([C@H]3C[C@@H]3c3ccccc3)c12)N1CCNCC1 (racemic) [Example 18, (±)-[6-(4-Hydroxy-phenyl)-3 trans-(2-phenyl-cyclopropyl)-1 H-pyrazolo[3,4-b]pyridin-4-yl]-piperazin-1-yl-methanone]"

# Same assay, conditions: final compound concentration 1.14 µM (±0.15 µM); 60 min incubation at 32 °C
row,SMILES,inhibition at 1.14 µM [%]
1,"CN(C)C(=O)N1CCN(C(=O)c2cc(-c3ccc(O)cc3)nc3[nH]nc(/C=C/c4ccccc4)c23)CC1 [Example 74, 4-[6-(4-Hydroxy-phenyl)-3-((E)-styryl)-1H-pyrazolo[3,4-b]pyridine-4-carbonyl]-piperazine-1-carboxylic acid dimethylamide]",27
2,"COCCC(=O)N1CCN(C(=O)c2cc(-c3ccc(O)cc3)nc3[nH]nc(/C=C/c4ccccc4)c23)CC1 [Example 88, 1-{4-[6-(4-Hydroxy-phenyl)-3-((E)-styryl)-1H-pyrazolo[3,4-b]-pyridine-4-carbonyl]-piperazin-1-yl}-3-methoxy-propan-1-one]",89
3,"O=C(c1cc(-c2ccc(O)cc2)nc2[nH]nc(/C=C/c3cc(Cl)cc(N4CCCCC4)c3)c12)N1CCNCC1 [Example 30, [3-[(E)-2-(3-Chloro-5-pipe-ridin-1-yl-phe-nyl)-vinyl]-6-(4-hydroxy-phenyl)-1H-pyrazolo[3,4-b]pyridin-4-yl]-piperazin-1-yl-methanone]",90
4,"CC1(C)CNCCN1C(=O)c1cc(-c2ccc(O)cc2)nc2[nH]nc(/C=C/c3ccccc3)c12 [Example 3, (2,2-Dimethyl-piperazin-1-yl)-[6-(4-hydroxy-phenyl)-3-((E)-styryl)-1 H-pyrazolo[3,4-b]pyridin-4-yl]-methanone]",88
5,"CCCC[C@H]1CNCCN1C(=O)c1cc(-c2ccc(O)cc2)nc2[nH]nc(/C=C/c3ccccc3)c12 [Example 76, ((S)-2-Butyl-piperazin-1-yl)-[6-(4-hydroxy-phenyl)-3-((E)-styryl)-1H-pyra-zolo[3,4-b]-pyridin-4-yl]-methanone]",57
6,"C[C@H]1CNCCN1C(=O)c1cc(-c2ccc(O)cc2F)nc2[nH]nc(/C=C/c3ccccc3)c12 [Example 11, [6-(2-Fluoro-4-hydroxy-phenyl)-3-((E)-styryl)-1H-pyrazolo[3,4-b]pyridin-4-yl]-((S)-2-methyl-piperazin-1-yl)-methanone]",99
7,"O=C(c1cc(-c2ccc(O)cc2)nc2[nH]nc(/C=C/c3cccc(N4CCOCC4)c3)c12)N1CCNCC1 [Example 27, {6-(4-Hydroxy-phenyl)-3-[(E)-2-(3-morpholin-4-yl-phenyl)-vinyl]-1H-pyrazolo[3,4-b]pyridin-4-yl}-piperazin-1-yl-methanone]",98
8,"O=C(c1cc(-c2ccc(O)cc2)nc2[nH]nc(/C=C/c3cccc(N4CCCCC4)c3)c12)N1CCNCC1 [Example 26, {6-(4-Hydroxy-phenyl)-3-[(E)-2-(3-piperidin-1-yl-phenyl)-vinyl]-1H-pyrazolo[3,4-b]pyridin-4-yl}-piperazin-1-yl-methanone]",96
9,"O=C(c1ccc(/C=C/c2n[nH]c3nc(-c4ccc(O)cc4)cc(C(=O)N4CCNCC4)c23)cc1)N1CCCCC1 [Example 19, (6-(4-Hydroxy-phenyl)-3-{(E)-2-[4-(piperidine-1-carbonyl)-phenyl]-vinyl}-1Hpyrazolo[3,4-b]pyridin-4-yl)-piperazin-1-yl-methanone]",99

# Results, then the molecule that gave them:
row,inhibition at 1.14 µM [%],SMILES
1,98,"CN1Cc2ccc(/C=C/c3n[nH]c4nc(-c5ccc(O)cc5)cc(C(=O)N5CCNCC5)c34)cc2C1=O [Example 35, 6-{(E)-2-[6-(4-Hydroxy-phenyl)-4-(piperazine-1-carbonyl)-1H-pyrazolo[3,4-b]pyridin-3-yl]-vinyl}-2-methyl-2,3-dihydro-isoindol-1-one]"
2,97,"O=C(c1cc(-c2ccc(O)cc2)nc2[nH]nc(/C=C/c3ccc(F)cc3)c12)N1CCNCC1 [Example 37, [3-[(E)-2-(4-Fluoro-phenyl)-vinyl]-6-(4-hydroxy-phenyl)-1H-pyrazolo[3,4-b]pyridin-4-yl]-piperazin-1-yl-methanone]"
3,97,"O=C(c1cc(-c2ccc(O)cc2)nc2[nH]nc(/C=C/c3cccc(Cl)c3)c12)N1CCNCC1 [Example 48, [3-[(E)-2-(3-Chloro-phenyl)-vinyl]-6-(4-hydroxy-phenyl)-1H-pyrazolo[3,4-b]pyridin-4-yl]-piperazin-1-yl-methanone]"
4,99,"CN(C)c1cccc(/C=C/c2n[nH]c3nc(-c4ccc(O)cc4)cc(C(=O)N4CCNCC4)c23)c1 [Example 23, [3-[(E)-2-(3-Dimethylamino-phenyl)-vinyl]-6-(4-hydroxy-phenyl)-1H-pyra-zolo[3,4-b]pyri-din-4-yl]-pipe-razin-1-yl-methanone]"
5,89,"O=C(c1cc(-c2ccc(O)cc2)nc2[nH]nc(/C=C/c3ccc(OC(F)(F)F)cc3)c12)N1CCNCC1 [Example 58, {6-(4-Hydroxyphenyl)-3-[(E)-2-(4-trifluorome-thoxy-phenyl)-vinyl]-1H-pyrazo-lo[3,4-b]pyridin-4-yl}-piperazin-1-yl-methanone]"
6,97,"O=C(c1cc(-c2ccc(O)cc2)nc2[nH]nc(/C=C/c3ccc(OC(F)F)cc3)c12)N1CCNCC1 [Example 41, [3-[(E)-2-(4-Difluoromethoxy-phenyl)-vinyl]-6-(4-hydroxy-phenyl)-1H-pyrazolo[3,4-b]pyridin-4-yl]-piperazin-1-yl-methanone]"
7,99,"CS(=O)(=O)Cc1cccc(/C=C/c2n[nH]c3nc(-c4ccc(O)cc4)cc(C(=O)N4CCNCC4)c23)c1 [Example 15, {6-(4-Hydroxy-phenyl)-3-[(E)-2-(3-methanesulfonylmethyl-phenyl)-vinyl]-1H-pyrazolo[3,4-b]pyridin-4-yl}-piperazin-1-yl-methanone]"
8,97,"O=C(c1cc(-c2ccc(O)cc2)nc2[nH]nc(/C=C/c3ccc(Oc4ccccc4)cc3)c12)N1CCNCC1 [Example 44, {6-(4-hydroxy-phenyl)-3-[(E)-2-(4-phenoxy-phenyl)-vinyl]-1H-pyrazolo[3,4-b]pyridin-4-yl}-piperazin-1-yl-methanone]"
9,97,"O=C(c1cc(-c2ccc(O)cc2)nc2[nH]nc(/C=C/c3ccc4c(c3)OCO4)c12)N1CCNCC1 [Example 65, [3-((E)-2-Benzo[1,3]dioxol-5-yl-vinyl)-6-(4-hydroxy-phenyl)-1H-pyrazolo[3,4-b]pyridin-4-yl]-piperazin-1-yl-methanone]"
10,60,"O=C(c1cc(-c2ccc(O)cc2)nc2[nH]nc(/C=C/c3ccccc3C(F)(F)F)c12)N1CCNCC1 [Example 68, {6-(4-Hydroxy-phenyl)-3-[(E)-2-(2-trifluoromethyl-phenyl)-vinyl]-1H-pyrazolo[3,4-b]pyridin-4-yl}-piperazin-1-yl-methanone]"
11,99,"O=C(c1cc(-c2ccc(O)cc2)nc2[nH]nc(/C=C/c3ccc4c(c3)CCO4)c12)N1CCNCC1 [Example 64, [3-[(E)-2-(2,3-Dihydrobenzofuran-5-yl)-vinyl]-6-(4-hydroxy-phenyl)-1H-pyrazolo[3,4-b]pyridin-4-yl]-piperazin-1-yl-methanone]"
12,115,"O=C(c1cc(-c2ccc(O)cc2)nc2[nH]nc(/C=C/c3cccc(N4CCCC4=O)c3)c12)N1CCNCC1 [Example 20, 1-(3-{(E)-2-[6-(4-Hydroxy-phenyl)-4-(piperazine-1-carbonyl)-1H-pyrazolo[3,4-b]pyridin-3-yl]-vinyl}-phenyl)-pyrrolidin-2-one]"
13,99,"CN(C)C(=O)c1ccc(/C=C/c2n[nH]c3nc(-c4ccc(O)cc4)cc(C(=O)N4CCNCC4)c23)cc1 [Example 66, 4-{(E)-2-[6-(4-Hydroxy-phenyl)-4-(piperazine-1-carbonyl)-1H-pyrazolo[3,4-b]pyridin-3-yl]-vinyl}-N,N-dimethyl-benzamide]"
14,87,"COc1ccc(/C=C/c2n[nH]c3nc(-c4ccc(O)cc4)cc(C(=O)N4CCNCC4)c23)c(OC)c1 [Example 43, [3-[(E)-2-(2,4-Dimethoxyphenyl)-vinyl]-6-(4-hydroxy-phenyl)-1H-pyrazolo[3,4-b]pyridin-4-yl]-piperazin-1-yl-methanone]"
